US11083725B2 (priority 2014, dated 2021)

Test system: NHBE cells
Assay: Biolog metabolic array: substrate use by NHBE cells with or without CA09 infection
Type: cell-based, human
Conditions: for Substrate use, 590 nm absorbance normalized to zero hour, 0 hr: Biolog PMM2, 0 hr; for Substrate use, 590 nm absorbance normalized to zero hour, 1 hr: Biolog PMM2, 1 hr; for Substrate use, 590 nm absorbance normalized to zero hour, 5 hr: Biolog PMM2, 5 hr; for Substrate use, 590 nm absorbance normalized to zero hour, 7 hr: Biolog PMM2, 7 hr
[1] = Control (uninfected) NHBE cells
[2] = Virus (CA09-infected NHBE cells, MOI 1)
[3] = Virus: CA09-infected NHBE cells, MOI 1, Biolog PMM2
[4] = Virus (CA09-infected, MOI 1) NHBE cells

SMILES | 590 nm absorbance normalized to zero hour (substrate use), 1 hr [1] | 590 nm absorbance normalized to zero hour (substrate use), 2 hr [1] | 590 nm absorbance normalized to zero hour (substrate use), 3 hr [1] | 590 nm absorbance normalized to zero hour (substrate use), 4 hr [1] | 590 nm absorbance normalized to zero hour (substrate use), 6 hr [1] | 590 nm absorbance normalized to zero hour (substrate use), 8 hr [1] | 590 nm absorbance normalized to zero hour (substrate use), 9 hr [1] | 590 nm absorbance normalized to zero hour (substrate use), 10 hr [1] | 590 nm absorbance normalized to zero hour (substrate use), 11 hr [1] | Substrate use, 590 nm absorbance normalized to zero hour, 1 hr [1] | Substrate use, 590 nm absorbance normalized to zero hour, 5 hr [1] | Substrate use, 590 nm absorbance normalized to zero hour, 7 hr [1] | 590 nm absorbance normalized to zero hour (substrate use), 1 hr [3] | 590 nm absorbance normalized to zero hour (substrate use), 2 hr [3] | 590 nm absorbance normalized to zero hour (substrate use), 3 hr [3] | 590 nm absorbance normalized to zero hour (substrate use), 4 hr [3] | 590 nm absorbance normalized to zero hour (substrate use), 5 hr [3] | 590 nm absorbance normalized to zero hour (substrate use), 6 hr [3] | 590 nm absorbance normalized to zero hour (substrate use), 7 hr [3] | 590 nm absorbance normalized to zero hour (substrate use), 8 hr [3] | also measured
O=C(O)C[C@@H](O)C(=O)O [D-Malic Acid] | 1.49 | 2.03 | 2.06 | 2.25 | 2.19 | 3.00 | 3.06 | 3.20 | 3.52 | 1.49 | 2.63 | 2.87 | 2.26 | 2.49 | 2.54 | 2.71 | 2.61 | 1.75 | 1.82 | 1.98 | 590 nm absorbance normalized to zero hour (substrate use), 0 hr [1]: 1.00; Substrate use, 590 nm absorbance normalized to zero hour, 0 hr [1]: 1.00; 590 nm absorbance normalized to zero hour (substrate use), 0 hr [2]: 1.00; 590 nm absorbance normalized to zero hour (substrate use), 1 hr [2]: 2.26; 590 nm absorbance normalized to zero hour (substrate use), 2 hr [2]: 2.49; 590 nm absorbance normalized to zero hour (substrate use), 3 hr [2]: 2.54; 590 nm absorbance normalized to zero hour (substrate use), 4 hr [2]: 2.71; 590 nm absorbance normalized to zero hour (substrate use), 5 hr [2]: 2.61; 590 nm absorbance normalized to zero hour (substrate use), 6 hr [2]: 1.75; 590 nm absorbance normalized to zero hour (substrate use), 7 hr [2]: 1.82; 590 nm absorbance normalized to zero hour (substrate use), 8 hr [2]: 1.98; 590 nm absorbance normalized to zero hour (substrate use), 9 hr [2]: 1.95; 590 nm absorbance normalized to zero hour (substrate use), 10 hr [2]: 2.27; 590 nm absorbance normalized to zero hour (substrate use), 11 hr [2]: 2.21; 590 nm absorbance normalized to zero hour (substrate use), 0 hr [3]: 1.00; 590 nm absorbance normalized to zero hour (substrate use), 9 hr [3]: 1.95; 590 nm absorbance normalized to zero hour (substrate use), 10 hr [3]: 2.27; 590 nm absorbance normalized to zero hour (substrate use), 11 hr [3]: 2.21
OC[C@@H](O)[C@@H](O)[C@H](O)[C@H](O)CO [D-Mannitol] | 0.96 | 0.94 | 1.00 | 0.99 | 0.34 | 0.74 | 0.79 | 0.74 | 0.64 | 0.96 | 0.91 | 0.81 | 0.20 | 0.27 | 0.32 | 0.34 | 0.40 | 0.42 | 0.44 | 0.47 | 590 nm absorbance normalized to zero hour (substrate use), 1 hr [4]: 0.20; 590 nm absorbance normalized to zero hour (substrate use), 2 hr [4]: 0.27; 590 nm absorbance normalized to zero hour (substrate use), 3 hr [4]: 0.32; 590 nm absorbance normalized to zero hour (substrate use), 4 hr [4]: 0.34; 590 nm absorbance normalized to zero hour (substrate use), 5 hr [4]: 0.40; 590 nm absorbance normalized to zero hour (substrate use), 6 hr [4]: 0.42; 590 nm absorbance normalized to zero hour (substrate use), 7 hr [4]: 0.44; 590 nm absorbance normalized to zero hour (substrate use), 8 hr [4]: 0.47; 590 nm absorbance normalized to zero hour (substrate use), 9 hr [4]: 0.52; 590 nm absorbance normalized to zero hour (substrate use), 10 hr [4]: 0.53; 590 nm absorbance normalized to zero hour (substrate use), 11 hr [4]: 0.57; 590 nm absorbance normalized to zero hour (substrate use), 9 hr [3]: 0.52; 590 nm absorbance normalized to zero hour (substrate use), 10 hr [3]: 0.53; 590 nm absorbance normalized to zero hour (substrate use), 11 hr [3]: 0.57
OC[C@H]1OC(O)[C@@H](O)[C@@H](O)[C@@H]1O (stereo partly drawn) [D-Mannose] | 2.20 | 3.33 | 4.33 | 4.90 | 6.50 | 8.13 | 9.60 | 10.60 | 12.47 | 2.20 | 6.64 | 8.62 | 1.49 | 2.09 | 2.68 | 3.06 | 4.10 | 4.57 | 4.94 | 5.47 | 590 nm absorbance normalized to zero hour (substrate use), 0 hr [1]: 1.00; Substrate use, 590 nm absorbance normalized to zero hour, 0 hr [1]: 1.00; 590 nm absorbance normalized to zero hour (substrate use), 0 hr [4]: 1.00; 590 nm absorbance normalized to zero hour (substrate use), 1 hr [4]: 1.49; 590 nm absorbance normalized to zero hour (substrate use), 2 hr [4]: 2.09; 590 nm absorbance normalized to zero hour (substrate use), 3 hr [4]: 2.68; 590 nm absorbance normalized to zero hour (substrate use), 4 hr [4]: 3.06; 590 nm absorbance normalized to zero hour (substrate use), 5 hr [4]: 4.10; 590 nm absorbance normalized to zero hour (substrate use), 6 hr [4]: 4.57; 590 nm absorbance normalized to zero hour (substrate use), 7 hr [4]: 4.94; 590 nm absorbance normalized to zero hour (substrate use), 8 hr [4]: 5.47; 590 nm absorbance normalized to zero hour (substrate use), 9 hr [4]: 6.51; 590 nm absorbance normalized to zero hour (substrate use), 10 hr [4]: 6.80; 590 nm absorbance normalized to zero hour (substrate use), 11 hr [4]: 7.75; 590 nm absorbance normalized to zero hour (substrate use), 0 hr [3]: 1.00; 590 nm absorbance normalized to zero hour (substrate use), 9 hr [3]: 6.51; 590 nm absorbance normalized to zero hour (substrate use), 10 hr [3]: 6.80; 590 nm absorbance normalized to zero hour (substrate use), 11 hr [3]: 7.75
